# Measurements published in US6726940B2, “Use of at least one extract of the genus chrysanthemum for assisting skin and/or hair pigmentation” (Societe L'Oreal S.A., priority 1997, dated 2004).
# What was measured:
# [1] = test system: co-cultures of normal human keratinocytes/melanocytes; experiment: Modulation of melanogenesis: incorporation of 14C thiouracil in co-cultures of keratinocytes/melanocytes; assay type: cell-based; conditions: NHK/NHM co-culture, three days treatment
# Procedure: The modulator effect on melanogenesis of the extract obtained by Protocol 2 of Example 1 was tested on co-cultures of normal human keratinocytes/melanocytes according to the method described in the Patent FR 95 06491. The rate of synthesis of melanine is evaluated by the incorporation of thiouracil labelled with C^14. The synthesis of the proteins, determined by the incorporation of tritiated leucine, is taken as an indicator of cytotoxicity and of proliferation. The normal human keratinocytes (NHK) and the normal human melanocytes (NHM) are cultured from preputial skin. The two types of cells are proliferated and stored frozen. […] The proteins are precipitated with the aid of 5% trichloroacetic acid (TCA) and washed in order to eliminate the free radioactivity. […] The radioactivity is counted with the aid of the Wallac counter. The results are expressed as a percentage of the control according to the formula: [formula] in which: ^14CP is the average of the disintegrations per minute (dpm) of ^14C thiouracil in 3 similar wells treated with a product (P); ^3HP is the average of the corresponding ^3H leucine dpm; ^14CT is the average of the ^14C thiouracil dpm in 3 similar control wells (T); ^3HT is the average of the corresponding ^3H leucine dpm.
# [2] = test system: co-cultures of normal human keratinocytes/melanocytes; experiment: Synthesis of proteins: incorporation of tritiated leucine, indicator of cytotoxicity and of proliferation; assay type: cell-based; conditions: NHK/NHM co-culture, three days treatment
# Procedure: The modulator effect on melanogenesis of the extract obtained by Protocol 2 of Example 1 was tested on co-cultures of normal human keratinocytes/melanocytes according to the method described in the Patent FR 95 06491. The rate of synthesis of melanine is evaluated by the incorporation of thiouracil labelled with C^14. The synthesis of the proteins, determined by the incorporation of tritiated leucine, is taken as an indicator of cytotoxicity and of proliferation.
# The normal human keratinocytes (NHK) and the normal human melanocytes (NHM) are cultured from preputial skin. The two types of cells are proliferated and stored frozen. Eight days before the test, each of the cell types is again put into culture in KGM medium from Gibco for keratinocytes (NHK) and into M2 medium from Dr Olsson for melanocytes (NHM) (Olsson, M. J. et al., Lancet (1992) 340, 981). […]
# The total radioactivity incorporated in the proteins is estimated by the incorporation of tritiated leucine. […]
# After one night, the cells are rinsed in phosphate buffer. The proteins are precipitated with the aid of 5% trichloroacetic acid (TCA) and washed in order to eliminate the free radioactivity. […]
# The remainder of the extract, or 950 μl, is filtered through a DEAE Filtermat filter. […] The radioactivity is counted with the aid of the Wallac counter. The results are expressed as a percentage of the control according to the formula: [formula] […]
Compound,^14CThioU. (%/control) ([1]; 0.5 mM),^3HLeu. (%/control) ([2]; 0.5 mM),^14CThioU. (%/control) ([1]; 1 mM),^3HLeu. (%/control) ([2]; 1 mM)
O=c1cc(CO)occ1O [kojic acid],−47,+4 %/control,–,–
N[C@@H](Cc1ccc(O)cc1)C(=O)O [tyrosine],–,–,+118 %/control,−2
